# In the supplement of paper PMC10307832:
# Assays:
# Assay in all cases: relative viability (nuclei count vs DMSO), 5 days (fraction); higher = more cells survive
# Nelarabine + Tozasertib = compound: COc1nc(N)nc2c1ncn2[C@@H]1O[C@H](CO)[C@@H](O)[C@@H]1O [Nelarabine] + Cc1cc(Nc2cc(N3CCN(C)CC3)nc(Sc3ccc(NC(=O)C4CC4)cc3)n2)n[nH]1 [Tozasertib] (partner 0.1 µM)
# Procedure, shortened: (§1)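 Lung cancer cell lines were pin-tool dosed in 1536-well plates on the day after seeding, with either a lone drug or a fixed anchor-drug dose plus five library-drug doses (not always all listed) in √10 steps. Nuclei were counted on 4× images after 5 days. Relative viability is the ratio of treated-well to vehicle-well nuclei counts, with each value a median of duplicate plates.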
# Adavosertib + Decitabine = compound: C=CCn1c(=O)c2cnc(Nc3ccc(N4CCN(C)CC4)cc3)nc2n1-c1cccc(C(C)(C)O)n1 [Adavosertib] + Nc1ncn([C@H]2C[C@H](O)[C@@H](CO)O2)c(=O)n1 [Decitabine] (partner 2 µM)
# Procedure, shortened: as §1
# Adavosertib + Crizotinib = compound: C=CCn1c(=O)c2cnc(Nc3ccc(N4CCN(C)CC4)cc3)nc2n1-c1cccc(C(C)(C)O)n1 [Adavosertib] + C[C@@H](Oc1cc(-c2cnn(C3CCNCC3)c2)cnc1N)c1c(Cl)ccc(F)c1Cl [Crizotinib] (partner 1 µM)
# Procedure, shortened: as §1
# Nelarabine + Vorinostat = compound: COc1nc(N)nc2c1ncn2[C@@H]1O[C@H](CO)[C@@H](O)[C@@H]1O [Nelarabine] + O=C(CCCCCCC(=O)Nc1ccccc1)NO [Vorinostat] (partner 1 µM)
# Procedure, shortened: as §1
Cell Line,relative viability (Nelarabine + Tozasertib; first compound 0.01 µM),relative viability (Nelarabine + Tozasertib; first compound 0.03162 µM),relative viability (Nelarabine + Tozasertib; first compound 0.1 µM),relative viability (Nelarabine + Tozasertib; first compound 0.3162 µM),relative viability (Nelarabine + Tozasertib; first compound 1 µM),relative viability (Adavosertib + Decitabine; first compound 0.01 µM),relative viability (Adavosertib + Decitabine; first compound 0.03162 µM),relative viability (Adavosertib + Decitabine; first compound 0.1 µM),relative viability (Adavosertib + Decitabine; first compound 0.3162 µM),relative viability (Adavosertib + Crizotinib; first compound 0.01 µM),relative viability (Adavosertib + Crizotinib; first compound 0.03162 µM),relative viability (Adavosertib + Crizotinib; first compound 0.1 µM),relative viability (Adavosertib + Crizotinib; first compound 0.3162 µM),relative viability (Nelarabine + Vorinostat; first compound 0.01 µM),relative viability (Nelarabine + Vorinostat; first compound 0.03162 µM),relative viability (Nelarabine + Vorinostat; first compound 0.1 µM),relative viability (Nelarabine + Vorinostat; first compound 0.3162 µM),relative viability (Nelarabine + Vorinostat; first compound 1 µM)
SW 1573,0.167,0.199,0.134,0.23,0.162,0.503,0.535,0.663,0.291,0.797,0.879,1.09,0.845,1.05,0.81,0.806,0.628,0.776
NCI-H727,0.789,0.816,0.617,0.598,0.694,0.843,0.845,0.899,0.909,0.804,0.994,0.737,0.871,1.24,1.17,1.13,1.27,1.19
NCI-H441,0.691,0.704,0.58,0.61,0.697,0.29,0.266,0.264,0.289,0.751,0.637,0.838,0.568,0.749,0.814,1.02,0.886,0.793
LCLC-97TM1,0.259,0.148,0.192,0.2,0.234,0.262,0.264,0.246,0.221,–,0.501,0.357,0.147,–,–,0.464,0.819,0.713
NCI-H2405,0.805,0.682,0.663,0.73,0.67,–,0.761,0.794,0.698,0.804,0.875,0.872,0.879,1.2,0.988,1.05,1.03,0.886
NCI-H460,0.834,0.253,0.38,0.77,0.442,0.569,0.449,0.512,0.393,0.929,0.822,1.11,0.627,1.42,1.5,0.889,1.13,0.923
NCI-H650,0.787,0.616,0.694,0.768,0.735,0.352,0.319,0.342,0.286,0.706,0.648,0.692,0.609,0.415,0.376,0.4,0.479,0.499
NCI-H661,0.343,0.334,0.333,0.344,0.364,0.595,0.577,0.489,0.4,1.08,1.1,1.13,1.04,0.862,0.951,0.702,0.761,0.727
LK-2,0.172,–,0.161,0.147,0.156,0.254,0.346,0.349,0.412,0.278,0.249,0.188,0.224,0.242,0.256,0.334,0.294,0.283
LU99A,0.287,0.253,0.239,0.264,0.279,0.942,0.912,0.846,0.69,0.529,0.584,0.561,0.461,0.615,0.417,0.579,0.467,0.39
EPLC-272H,0.219,0.2,0.287,0.295,0.253,0.355,0.344,0.448,0.308,1.01,1.03,0.797,0.652,0.313,0.411,0.459,0.387,0.385
NCI-H2087,0.303,0.24,0.22,0.19,0.245,0.24,0.347,0.276,0.277,0.911,0.96,1.03,0.896,0.674,0.551,1.07,0.874,0.898
HCC-827,0.499,0.423,0.446,0.366,0.476,0.15,0.344,0.341,0.214,0.895,0.943,1.03,0.929,0.595,0.748,0.639,0.721,0.64
ABC-1,0.233,0.149,0.162,0.146,0.175,1.28,1.04,1.17,0.959,1.16,1.19,1.05,1.31,1.24,1.51,1.22,1.07,0.929
NCI-H520,0.574,0.315,0.429,0.457,0.429,0.488,0.525,0.555,0.473,0.925,0.83,0.94,0.579,0.905,0.757,0.676,0.746,0.828
NCI-H1734,0.305,0.253,0.253,0.257,0.292,0.501,0.511,0.474,0.363,0.817,0.772,0.82,0.695,0.839,0.704,0.772,0.766,0.892
NCI-H2009,0.893,0.748,0.742,0.812,0.752,0.362,0.419,0.414,0.37,0.995,1.05,1.03,1.04,0.789,0.676,0.663,0.8,0.661
NCI-H1993,0.662,0.553,0.623,0.586,0.571,0.58,0.593,0.617,0.585,0.919,0.804,0.874,0.95,0.742,0.728,0.736,0.592,0.694
